Data: patent US6656956B2, “Benzimidazole derivatives, processes for preparing them and their use as pharmaceutical compositions” (Boehringer Ingelheim Pharma KG, priority 2001, dated 2003)
Structures can show the parent of a compound that is named as a salt.

target: T1, rh beta tryptase (Homo sapiens, UniProt Q15661); assay: tryptase inhibition in vitro test (cleavage of N-p-tosyl-Gly-Pro-Lys-para-nitroaniline, p-nitroaniline measured at 405 nm); assay type: biochemical; conditions: rh beta tryptase 0.91 U/ml, substrate 0.6 mM, Tris HCl buffer with calcium and heparin, pH 7.4, 37° C., 5 minutes incubation; read-out: Tryptase-inhibiting activity
T1 construct: purchased Promega
Method in brief: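 Chromogenic assay in 100 mM Tris HCl pH 7.4 with 5 mM calcium and […], 0.91 U/ml enzyme, 0.6 mM substrate. Compound preincubated 5 min, then p-nitroaniline at 405 nm after 5 min, 37° C. Screening at 10 μM as % inhibition; IC50 determined when inhibition exceeded 70%.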

T1 sequence (Q15661 31-275): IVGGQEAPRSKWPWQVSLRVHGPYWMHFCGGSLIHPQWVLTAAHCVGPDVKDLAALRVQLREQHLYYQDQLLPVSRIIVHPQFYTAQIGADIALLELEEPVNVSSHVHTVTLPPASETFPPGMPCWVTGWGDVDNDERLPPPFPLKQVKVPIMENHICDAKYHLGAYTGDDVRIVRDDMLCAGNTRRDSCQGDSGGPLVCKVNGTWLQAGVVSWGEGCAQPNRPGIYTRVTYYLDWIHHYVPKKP

| IC50 | Compound |
| --- | --- |
| 4 to 30 nM | Cn1c(CCc2ccc(C(=N)N)cc2)nc2cc(N(Cc3cccc4ccccc34)C(=O)CN3CCC(Nc4ccc(OCc5ccccc5)cc4)CC3)ccc21 [Example 17, N-{2-[2-(4-Amidinophenyl)-ethyl]-1-methyl-benzimidazol-5-yl}-N-[naphth-1-ylmethyl]-2-[4-(4-benzyloxy-phenylamino)-piperid-1-yl]-acetamide, dihydrochloride] |
| 4 to 30 nM | CN(C(=O)CN1CCC(Nc2ccccc2OC(F)(F)F)CC1)c1ccc2c(c1)nc(CCc1ccc(C(=N)N)cc1)n2C [Example 39, N-{2-[2-(4-Amidinophenyl)-ethyl]-1-methyl-benzimidazol-5-yl}-N-methyl-2-[4-(2-trifluoromethoxyphenylamino)-piperid-1-yl]-acetamide, dihydrochloride] |
| 0.5 to 3 nM | CN(C(=O)CN1CCC(Nc2ccc(Cl)cc2Cl)CC1)c1ccc2c(c1)nc(CCc1ccc(C(=N)N)cc1)n2C [Example 32, N-{2-[2-(4-Amidinophenyl)-ethyl]-1-methyl-benzimidazol-5-yl}-N-methyl-2-[4-(2,4-dichlorophenylamino)-piperid-1-yl]-acetamide, dihydrochloride] |
| 31 to 1000 nM | N-{2-[2-(4-Amidinophenyl)-ethyl]-1-methyl-benzimidazol-5- yl}-N-[naphth-1-ylmethyl]-N′-[4-(2-naphthylmethylamino)]- urea, hydrochloride [Example 80] |
| 4 to 30 nM | CN(C)c1ccc(NC2CCN(CC(=O)N(Cc3cccc4ccccc34)c3ccc4c(c3)nc(CCc3ccc(C(=N)N)cc3)n4C)CC2)cc1 [Example 13, N-{2-[2-(4-Amidinophenyl)-ethyl]-1-methyl-benzimidazol-5-yl}-N-[naphth-1-ylmethyl]-2-[4-(4-dimethylaminophenyl-amino)-piperid-1-yl]-acetamide, trihydrochloride] |
| 0.5 to 3 nM | Cc1ccc(NC2CCN(CC(=O)N(C)c3ccc4c(c3)nc(CCc3ccc(C(=N)N)cc3)n4C)CC2)c(Br)c1 [Example 66, N-{2-[2-(4-Amidinophenyl)-ethyl]-1-methyl-benzimidazol-5-yl}-N-methyl-2-[4-(2-bromo-4-methylamino)-piperid-1-yl]-acetamide, dihydrochloride] |
| 4 to 30 nM | CN(C(=O)CN1CCC(Nc2ccc(F)cc2Cl)CC1)c1ccc2c(c1)nc(CCc1ccc(CN)cc1)n2C [Example 84, Ditrifluoroacetate] |
| 4 to 30 nM | CN(C(=O)CN1CCC(Nc2ccccc2C(F)(F)F)CC1)c1ccc2c(c1)nc(CCc1ccc(C(=N)N)cc1)n2C [Example 38, N-{2-[2-(4-Amidinophenyl)-ethyl]-1-methyl-benzimidazol-5-yl}-N-methyl-2-[4-(2-trifluoromethylphenylamino)-piperid-1-yl]-acetamide, dihydrochloride] |
| 31 to 1000 nM | Cn1c(CCc2ccc(C(=N)N)cc2)nc2cc(NC(=O)CN3CCC(Nc4ccccn4)CC3)ccc21 [Example 52, N-{2-[2-(4-Amidinophenyl)-ethyl]-1-methyl-benzimidazol-5-yl}-2-[4-(2-pyridylamino)-piperid-1-yl]-acetamide, dihydrochloride] |
| 0.5 to 3 nM | CN(C(=O)CN1CCC(Nc2ccccc2F)CC1)c1ccc2c(c1)nc(CCc1ccc(C(=N)N)cc1)n2C [Example 36, N-{2-[2-(4-Amidinophenyl)-ethyl]-1-methyl-benzimidazol-5-yl}-N-methyl-2-[4-(2-fluorophenylamino)-piperid-1-yl]-acetamide, dihydrochloride] |
| 4 to 30 nM | Cn1c(CCc2ccc(C(=N)N)cc2)nc2cc(N(Cc3cccc4ccccc34)C(=O)CN3CCC(Oc4ccccn4)CC3)ccc21 [Example 16, N-{2-[2-(4-Amidinophenyl)-ethyl]-1-methyl-benzimidazol-5-yl}-N-[naphth-1-ylmethyl]-2-[4-(2-pyridinoxy)-piperid-1-yl]-acetamide, dihydrochloride] |
| 0.5 to 3 nM | CN(C(=O)CN1CCC(Nc2ccc(Br)cc2Cl)CC1)c1ccc2c(c1)nc(CCc1ccc(C(=N)N)cc1)n2C [Example 62, N-{2-[2-(4-Amidinophenyl)-ethyl]-1-methyl-benzimidazol-5-yl}-N-methyl-2-[4-(2-chloro-4-bromoamino)-piperid-1-yl]-acetamide, dihydrochloride] |
| 4 to 30 nM | Cn1c(CCc2ccc(C(=N)N)cc2)nc2cc(N(Cc3cccc4ccccc34)C(=O)CN3CCC(Cc4ccccn4)CC3)ccc21 [Example 20, N-{2-[2-(4-Amidinophenyl)-ethyl]-1-methyl-benzimidazol-5-yl}-N-[naphth-1-ylmethyl]-2-[4-(2-pyridylmethyl)-piperid-1-yl]-acetamide, dihydrochloride] |
| 4 to 30 nM | Cn1c(CCc2ccc(C(=N)N)cc2)nc2cc(N(Cc3cccc(N)c3)C(=O)CN3CCC(Nc4ccccn4)CC3)ccc21 [Example 55, N-{2-[2-(4-Amidinophenyl)-ethyl]-1-methyl-benzimidazol-5-yl}-N-[3-aminophenyl-methyl]-2-[4-(2-pyridylamino)-piperid-1-yl]-acetamide, dihydrochloride] |
| 0.5 to 3 nM | Cn1c(CCc2ccc(C(=N)N)cc2)nc2cc(N(Cc3cccc4ccccc34)C(=O)CN3CCC(C(=O)c4ccccc4)CC3)ccc21 [Example 24, N-{2-[2-(4-Amidinophenyl)-ethyl]-1-methyl-benzimidazol-5-yl}-N-[naphth-1-ylmethyl]-2-[4-(phenylcarbonyl)-piperid-1-yl]-acetamide, dihydrochloride] |
| 31 to 1000 nM | CN(CCC(=O)O)C1CCN(CC(=O)N(Cc2cccc3ccccc23)c2ccc3c(c2)nc(CCc2ccc(C(=N)N)cc2)n3C)CC1 [Example 25, N-{2-[2-(4-Amidinophenyl)-ethyl]-1-methyl-benzimidazol-5-yl}-N-[naphth-1-ylmethyl]-2-[4-(N-methyl-N-propionic acid)-piperid-1-yl]-acetamide, diacetate] |
| 0.5 to 3 nM | Cn1c(CCc2ccc(C(=N)N)cc2)nc2cc(N(Cc3cccc4ccccc34)C(=O)CN3CCC(Nc4ccccc4Cl)CC3)ccc21 [Example 12, N-{2-[2-(4-Amidinophenyl)-ethyl]-1-methyl-benzimidazol-5-yl}-N-[naphth-1-ylmethyl]-2-[4-(2-chlorophenylamino)-piperid-1-yl]-acetamide, dihydrochloride] |
| 0.5 to 3 nM | Cn1c(CCc2ccc(C(=N)N)cc2)nc2cc(N(Cc3ccccc3)C(=O)CN3CCC(Nc4ccccc4F)CC3)ccc21 [Example 59, N-{2-[2-(4-Amidinophenyl)-ethyl]-1-methyl-benzimidazol-5-yl}-N-benzyl-2-[4-(2-fluorophenylamino)-piperid-1-yl]-acetamide, dihydrochloride] |
| 4 to 30 nM | Cn1c(CCc2ccc(C(=N)N)cc2)nc2cc(N(Cc3cccc4ccccc34)C(=O)CN3CCC(Nc4ccncc4)CC3)ccc21 [Example 27, N-{2-[2-(4-Amidinophenyl)-ethyl]-1-methyl-benzimidazol-5-yl}-N-[naphth-1-ylmethyl]-2-[4-(4-pyridylamino)-piperid-1-yl]-acetamide, dihydrochloride] |
| 4 to 30 nM | CCOC(=O)CCN(C)C1CCN(CC(=O)N(Cc2cccc3ccccc23)c2ccc3c(c2)nc(CCc2ccc(C(=N)N)cc2)n3C)CC1 [Example 21, N-{2-[2-(4-Amidinophenyl)-ethyl]-1-methyl-benzimidazol-5-yl}-N-[naphth-1-ylmethyl]-2-[4-(ethyl N-methyl-N-propionate)-piperid-1-yl]-acetamide, trihydrochloride] |
| 0.5 to 3 nM | CN(C(=O)CN1CCC(Nc2ccccc2Cl)CC1)c1ccc2c(c1)nc(CCc1ccc(C(=N)N)cc1)n2C [Example 31, N-{2-[2-(4-Amidinophenyl)-ethyl]-1-methyl-benzimidazol-5-yl}-N-methyl-2-[4-(2-chlorophenylamino)-piperid-1-yl]-acetamide, dihydrochloride] |

| Compound | IC50 |
| --- | --- |
| Cn1c(CCc2ccc(C(=N)N)cc2)nc2cc(N(Cc3cccc4ccccc34)C(=O)NC3(Cc4ccccc4)CCNCC3)ccc21 [Example 77, N-{2-[2-(4-Amidinophenyl)-ethyl]-1-methyl-benzimidazol-5-yl}-N-[naphth-1-ylmethyl]-N′-[4-(benzyl)-piperidin-4-yl)-urea, hydrochloride] | 4 to 30 nM |
